Where a name gives a salt, the structure may show the parent alone.
Columns and labels:
dogs = experiment: Cardiovascular study in anesthetized dogs; format: in vivo, dog; conditions: anesthetized dogs
Outline: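 Nembutal-anaesthetized dogs (~14 kg) given CRL 41 194 (n=2) or CRL 41 221 (n=4) intraduodenally at successive 0.1, 0.5, 1, 2.5, 5 and 10 mg/kg doses. Blood pressure, heart rate, femoral and vertebral flow, rectal temperature measured; skin colour observed, plus bile colour (CRL 41 194).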

mice [1] = experiment: Four plate test, traction and electric shock; format: in vivo, mouse; conditions: i.p.
Experimental: The test is performed on groups of 10 mice 30 minutes after the administration of CRL 41 153.

rats = experiment: Interaction with amphetamine; format: in vivo, rat; conditions: i.p.
Experimental: Amphetamine (2 mg/kg) is injected intraperitoneally into groups of 6 rats 30 minutes after the administration of CRL 41 153. […] 4 mg/kg and 16 mg/kg, CRL 41 153 potentiates the intensity and duration of the stereotypies induced by amphetamine.

mice [2] = experiment: Spontaneous motility; format: in vivo, mouse; conditions: i.p.
Experimental: 0.5 hour after they have received CRL 41 153, the mice (6 per dose, 12 control animals) are placed in an actimeter, where their motility is recorded for 30 minutes.

Structure (SMILES): CC(C)NC(C)C(=O)c1ccc(N)cc1 (stereo not drawn) [CRL 41 153, 1-(4-aminophenyl)-2-isopropylaminopropanone dihydrochloride]
- Effect of propanolol or atenolol on the action of the product (dogs): The increase in the femoral and vertebral flows is suppressed by propanolol
- Effects of isoprenaline on the blood pressure (dogs): does not modify the effects of isoprenaline on the blood pressure
- Reflex bradycardia caused by hypertension (dogs): The reflex bradycardia caused by hypertension is converted to tachycardia
- α-adrenergic stimulant effect (dogs): moderate α-adrenergic stimulant effect
- Blood flow through the femoral artery (dogs; oral, 2.5 to 5 mg/kg): increases the blood flow through the femoral artery
- Blood flow through the vertebral artery (dogs; oral, 2.5 to 5 mg/kg): increases the blood flow through the femoral artery and the blood flow through the vertebral artery at doses of 2.5 to 5 mg/kg
- Effect on convulsant effects of electric shock (mice [1]): at high doses, CRL 41 153 antagonizes the convulsant effects of electric shock
- Effect on stereotypies induced by amphetamine (rats): at doses of 1 mg/kg. 4 mg/kg and 16 mg/kg, CRL 41 153 potentiates the intensity and duration of the stereotypies induced by amphetamine
- Spontaneous motor activity (mice [2]): increases the spontaneous motor activity of mice

Source: US4980377A, “1-(aminophenyl)-2-aminopropanone derivatives” (Laboratoire L. Lafon, priority 1984, dated 1990)
